Laboratory results from ChEMBL document CHEMBL1201862, “PubChem BioAssay data set” (2004).
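The compound was tested at five concentrations on cells cultured in 96-well plates, with a 48-hour exposure period. GI50: concentration for 50% inhibition of growth.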 The source made the active and inactive calls. Rule as the data show it: active = GI50 up to about 1.1 µM and inactive = higher.

Key:
Assay in all cases: NCI anticancer screen, dose series, 48 h
KM12 = tested on: KM12
OVCAR-8 = tested on: OVCAR-8
HCC 2998 = tested on: HCC 2998
K562 = tested on: K562
CAKI-1 = tested on: CAKI-1
SN12C = tested on: SN12C
RXF 393 = tested on: RXF 393
HT-29 = tested on: HT-29
MOLT-4 = tested on: MOLT-4
NCI-H522 = tested on: NCI-H522
OVCAR-4 = tested on: OVCAR-4
CCRF-CEM = tested on: CCRF-CEM
EKVX = tested on: EKVX
SW-620 = tested on: SW-620
UO-31 = tested on: UO-31
SNB-19 = tested on: SNB-19
HOP-62 = tested on: HOP-62
SK-MEL-5 = tested on: SK-MEL-5

OCCN(CCO)c1ccc2c(-c3ccccc3)cc(N(CCO)CCO)nc2n1
GI50 (KM12): > 100 µM (inactive)
GI50 (OVCAR-8): > 100 µM (inactive)
GI50 (HCC 2998): > 100 µM (inactive)
GI50 (K562): > 100 µM (inactive)
GI50 (CAKI-1): > 100 µM (inactive)
GI50 (SN12C): > 100 µM (inactive)
GI50 (RXF 393): > 100 µM (inactive)
GI50 (HT-29): > 100 µM (inactive)
GI50 (MOLT-4): > 100 µM (inactive)
GI50 (NCI-H522): > 100 µM (inactive)
GI50 (OVCAR-4): > 100 µM (inactive)
GI50 (CCRF-CEM): > 100 µM (inactive)
GI50 (EKVX): > 100 µM (inactive)
GI50 (SW-620): > 100 µM (inactive)
GI50 (UO-31): > 100 µM (inactive)
GI50 (SNB-19): > 100 µM (inactive)
GI50 (HOP-62): > 100 µM (inactive)
GI50 (SK-MEL-5): > 100 µM (inactive)

CC(C(O)c1ccccc1)[N+](=O)[O-] (stereo unspecified)
GI50 (KM12): 19.4 µM (inactive)
GI50 (OVCAR-8): 16.4 µM (inactive)
GI50 (HCC 2998): 10.9 µM (inactive)
GI50 (K562): 6.44 µM (inactive)
GI50 (CAKI-1): 14.2 µM (inactive)
GI50 (SN12C): 18.1 µM (inactive)
GI50 (RXF 393): 10.9 µM (inactive)
GI50 (HT-29): 27.2 µM (inactive)
GI50 (MOLT-4): 1.65 µM (inactive)
GI50 (NCI-H522): 8.71 µM (inactive)
GI50 (OVCAR-4): 24.7 µM (inactive)
GI50 (CCRF-CEM): 10 µM (inactive)
GI50 (EKVX): 30 µM (inactive)
GI50 (SW-620): 8.81 µM (inactive)
GI50 (UO-31): 7.69 µM (inactive)
GI50 (SNB-19): 24.5 µM (inactive)
GI50 (HOP-62): 25.3 µM (inactive)
GI50 (SK-MEL-5): 17.9 µM (inactive)

NC(=O)/C=c1/c2ccccc2n2nc3ccccc3c12
GI50 (KM12): 14.3 µM (inactive)
GI50 (OVCAR-8): 8.71 µM (inactive)
GI50 (HCC 2998): 17 µM (inactive)
GI50 (K562): 15.3 µM (inactive)
GI50 (CAKI-1): 20.1 µM (inactive)
GI50 (SN12C): 19.1 µM (inactive)
GI50 (RXF 393): 17.1 µM (inactive)
GI50 (HT-29): 15.9 µM (inactive)
GI50 (MOLT-4): 2.69 µM (inactive)
GI50 (NCI-H522): 14.1 µM (inactive)
GI50 (OVCAR-4): 10.3 µM (inactive)
GI50 (CCRF-CEM): 3.56 µM (inactive)
GI50 (EKVX): 14.4 µM (inactive)
GI50 (SW-620): 17.5 µM (inactive)
GI50 (UO-31): 19.2 µM (inactive)
GI50 (SNB-19): 20.1 µM (inactive)
GI50 (HOP-62): 26.1 µM (inactive)
GI50 (SK-MEL-5): 35.6 µM (inactive)

O=C(/C=C1/Nc2ccc([N+](=O)[O-])cc2N/C1=C/C(=O)c1ccc(Cl)cc1)c1ccccc1
GI50 (KM12): > 100 µM (inactive)
GI50 (OVCAR-8): 72.4 µM (inactive)
GI50 (HCC 2998): > 100 µM (inactive)
GI50 (K562): 55.8 µM (inactive)
GI50 (CAKI-1): > 100 µM (inactive)
GI50 (SN12C): > 100 µM (inactive)
GI50 (RXF 393): 23.8 µM (inactive)
GI50 (HT-29): > 100 µM (inactive)
GI50 (MOLT-4): > 100 µM (inactive)
GI50 (NCI-H522): 12.6 µM (inactive)
GI50 (OVCAR-4): > 100 µM (inactive)
GI50 (CCRF-CEM): 64.7 µM (inactive)
GI50 (EKVX): > 100 µM (inactive)
GI50 (UO-31): > 100 µM (inactive)
GI50 (SNB-19): 37 µM (inactive)
GI50 (HOP-62): 20.8 µM (inactive)
GI50 (SK-MEL-5): > 100 µM (inactive)

CCCCCCCCCCCCCCCC1(OC)C[N+](C)(C)CCO1 (stereo unspecified)
GI50 (KM12): 0.586 µM (active)
GI50 (OVCAR-8): 1.83 µM (inactive)
GI50 (HCC 2998): 2.54 µM (inactive)
GI50 (K562): 1.85 µM (inactive)
GI50 (CAKI-1): 1.4 µM (inactive)
GI50 (SN12C): 1.66 µM (inactive)
GI50 (RXF 393): 0.778 µM (active)
GI50 (HT-29): 1.22 µM (inactive)
GI50 (MOLT-4): 1.12 µM (inactive)
GI50 (NCI-H522): 1.65 µM (inactive)
GI50 (OVCAR-4): 1.02 µM (active)
GI50 (CCRF-CEM): 0.637 µM (active)
GI50 (EKVX): 2.31 µM (inactive)
GI50 (SW-620): 3.21 µM (inactive)
GI50 (SNB-19): 1.6 µM (inactive)
GI50 (HOP-62): 1.61 µM (inactive)
GI50 (SK-MEL-5): 1.9 µM (inactive)

CCCN(CCC)CCc1ccc(OC2=CCN(C)CC2)cc1
GI50 (KM12): 30.4 µM (inactive)
GI50 (OVCAR-8): 36.9 µM (inactive)
GI50 (HCC 2998): > 100 µM (inactive)
GI50 (K562): 42.6 µM (inactive)
GI50 (CAKI-1): > 100 µM (inactive)
GI50 (SN12C): > 100 µM (inactive)
GI50 (RXF 393): > 100 µM (inactive)
GI50 (HT-29): 16 µM (inactive)
GI50 (MOLT-4): 43.3 µM (inactive)
GI50 (NCI-H522): 21.1 µM (inactive)
GI50 (OVCAR-4): > 100 µM (inactive)
GI50 (CCRF-CEM): 93.5 µM (inactive)
GI50 (EKVX): > 100 µM (inactive)
GI50 (SW-620): > 100 µM (inactive)
GI50 (UO-31): 23.6 µM (inactive)
GI50 (SNB-19): > 100 µM (inactive)
GI50 (HOP-62): > 100 µM (inactive)
GI50 (SK-MEL-5): 32.3 µM (inactive)
